In brackets after ≈: the same amount, converted by molar mass. Read-outs that look alike come from different tables or passages of the source. Numbered stars: 1 amine (or outer) side, 2 acyl side, 3 side chain; on linkers, the order of the positions; unused ones are H or OH. Bridge positions count the residues as written; N and C are the ends. Square brackets hold non-standard residues; d marks the D form. Peptide text beside a SMILES is read from it. * marks the point of attachment. X5 = O=C([C@@H]1C[C@@H](OP(=O)(O)O)CN1[*:1])[*:2]; Piperazine(2S-CO,4-Me) = CN1CCN[C@H](C(=O)O)C1; Phe(3,5-Me2) = Cc1cc(C)cc(C[C@H](N)C(=O)O)c1; Phe(3-OMe) = COc1cccc(C[C@H](N)C(=O)O)c1; Phe(3-Me) = Cc1cccc(C[C@H](N)C(=O)O)c1; NH(4-Cl-2-F-phenyl) = Fc1cc(Cl)ccc1N*; Pro(4R-Me) = C[C@H]1CN[C@H](C(=O)O)C1; Hyp = O=C(O)[C@@H]1C[C@@H](O)CN1; NH(4-Me-phenyl) = Cc1ccc(N*)cc1; aThr = C[C@H](O)[C@H](N)C(=O)O; Pip = O=C(O)[C@@H]1CCCCN1; CO = O=C([*:1])[*:2]; X2 = Fc1cc(N*)ccc1Cl
Experiments:
[1] = molecular target: T1, S. aureus ClpP (Sa-ClpP) (Staphylococcus aureus, UniProt Q2G036); assay: Casein-BODIPY digestion assay (ClpP activation); assay type: biochemical
T1 construct: made in house; host or cells: E. coli BL21 (DE3)

[2] = molecular target: T2, Sa-ClpP (Staphylococcus aureus, UniProt Q2G036); assay: ADEP displacement fluorescence polarization assay; assay type: binding, S. aureus; conditions: displacement of FP probe ADEP 2591 from Sa-ClpP
T2 construct: made in house; host or cells: E. coli BL21 (DE3)
Experimental: A fluorescence polarization (FP) assay was used to determine the activity of the disclosed compounds in displacing an ADEP analogue from ClpP. Briefly, the assay was performed in black 384 well, flat bottom, low volume plates (Greiner Bio-One, Monroe, N.C., catalog #784076). 20 μL of a pre-equilibrated (1 hr, room temperature) master mix (15 μM Sa-ClpP, 2% DMSO (v/v) and 50 nM FP probe in TrisHCl, pH 8.0)) was pipetted into each well using a Well-Mate (Thermo Scientific, Waltham, Mass.). Sa-ClpP was prepared as described above for the ClpP activation assay. The FP probe was ADEP 2591 (structure shown above). The ADEP 2591 comprises a TAMRA fluorophore linked to a core based on modified ADEP 2378 via a short alkyl linker. Using pin transfer, approximately 0.4 μL (2% v/v DMSO) of each compound or control was added per well. After addition of compounds and controls, plates were allowed to incubate for an additional 120 minutes at room temperature. All assays were performed in triplicate. Polarization was monitored using an EnVision Multilabel reader (Perkin-Elmer, Waltham, Mass.) by exciting the FP probe at 530±25 nm, and monitoring fluorescence intensity of both parallel and perpendicular polarized light at 579±25 nm. Readout was in millipolarization units (mP).
Signal gain and G factors were determined in wells containing 200 μM ADEP 2378, which had been previously verified (data not shown) as containing completely unbound ADEP 2591. Data collected was normalized to values obtained from positive (200 μM ADEP 2378) or negative (DMSO) controls. Curves were fit with non-linear regression using the equation “log [inhibitor] vs. Response-variable slope (four parameters)-symmetrical” in the program Prism 6 (GraphPad Software, La Jolla, Calif. USA, www.graphpad.com). The structures for ADEP 2378 and ADEP 2591 are shown above. ADEP 2378 is (E)-N—((S)-1-(((2R,6S,8aS,14aS,20S,23aS)-2,6-dimethyl-5,8,14,19,23-pentaoxooctadecahydro-1H,5H,14H,19H-pyrido[2,1-i]dipyrrolo[2,1-c:2′,1′-1][1]oxa[4,7,10,13]tetraazacyclohexadecin-20-yl)amino)-1-oxo-3-phenylpropan-2-yl)pent-2-enamide. ADEP 2591 is 5-(3-(3-((6S,9S,11aS,17S,20aS)-6,10-dimethyl-5,8,11,16,20-pentaoxo-17-((S)-2-((E)-pent-2-enamido)-3-phenylpropanamido)hexadecahydro-1H,5H,16H-dipyrrolo[2,1-c:2′,1′-1][1]oxa[4,7,10,13]tetraazacyclohexadecin-9-yl)propyl)thioureido)-2-(6-(dimethylamino)-3-(dimethyliminio)-3H-xanthen-9-yl)benzoate.

[3] = test system: S. aureus ATCC 29213; assay: Minimal inhibitory concentration, microbroth dilution; assay type: cell-based; conditions: Staphylococcus aureus
Method in brief: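 Susceptibility testing used the CLSI dilution standard, with bacteria at ~10^5 cfu/mL exposed to a two-fold compound series beginning at 200 μM final. The endpoint is the lowest concentration showing no growth after overnight incubation (37 °C, aerobic).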

[4] = ATCC29213, read-out: Minimal Inhibitory Concentrations (μM) S. aureus ATCC 29213, MIC
[5] = ATCC29213, MIC, read-out: Minimal Inhibitory Concentrations (μM) S. aureus ATCC 29213

T2 sequence (Q2G036 whole entry): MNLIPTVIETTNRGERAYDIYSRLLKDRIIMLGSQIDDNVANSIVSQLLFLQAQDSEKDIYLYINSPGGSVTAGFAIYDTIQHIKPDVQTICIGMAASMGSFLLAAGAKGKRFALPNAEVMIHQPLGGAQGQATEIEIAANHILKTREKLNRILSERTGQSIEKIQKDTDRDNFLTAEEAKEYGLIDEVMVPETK
T1 sequence (Q2G036 whole entry): as above

SMILES	EC50 [1] [nM]	IC50 [2] [nM]	MIC [3, 4] [µM]	MIC [3, 5] [µM]
Cc1cccc(C[C@H](NC(=O)Nc2ccc(Cl)cc2F)C(=O)N[C@@H]2C(=O)N3C[C@H](OP(=O)(O)O)C[C@H]3C(=O)N3CCCC[C@H]3C(=O)N[C@@H](C)C(=O)N3C[C@H](C)C[C@H]3C(=O)O[C@H]2C)c1 [Compound 29, (2R,6S,8AS,14AS,16R,20S,21S,23AS)-20-((S)-2-(3-(4-CHLORO-2-FLUOROPHENYL)UREIDO)-3-(M-TOLYL)PROPANAMIDO)-2,6,21-TRIMETHYL-5,8,14,19,23-PENTAOXOOCTADECAHYDRO-1H,5H,14H,19H-PYRIDO[2,1-I]DIPYRROLO[2,1-C:2′,1′-L][1]OXA[4,7,10,13]TETRAAZACYCLOHEXADECIN-16-YL DIHYDROGEN PHOSPHATE] ({NH(4-Cl-2-F-phenyl)-CO}-[Phe(3-Me)][aThr][X5][Pip]A[Pro(4R-Me)]; ester 2-C)	240 ± 240	4450 ± 450	5	
Cc1ccc(NC(=O)N[C@@H](Cc2cc(C)cc(C)c2)C(=O)N[C@@H]2C(=O)N3CCC[C@H]3C(=O)N3CCCC[C@H]3C(=O)N[C@@H](C)C(=O)N3C[C@H](C)C[C@H]3C(=O)O[C@H]2C)cc1 [Compound 2, (S)-3-(3,5-DIMETHYLPHENYL)-2-(3-(P-TOLYL)UREIDO)-N-((2R,6S,8AS,14AS,20S,21S,23AS)-2,6,21-TRIMETHYL-5,8,14,19,23-PENTAOXOOCTADECAHYDRO-1H,5H,14H,19H-PYRIDO[2,1-I]DIPYRROLO[2,1-C:2′,1′-L][1]OXA[4,7,10,13]TETRAAZACYCLOHEXADECIN-20-YL)PROPANAMIDE] ({NH(4-Me-phenyl)-CO}-[Phe(3,5-Me2)][aThr]P[Pip]A[Pro(4R-Me)]; ester 2-C)	870 ± 30	8820 ± 400	1.25 (≈ 1 µg/mL)	
Cc1cccc(C[C@H](NC(=O)Nc2ccc(Cl)cc2F)C(=O)N[C@@H]2C(=O)N3CCC[C@H]3C(=O)N3CCCC[C@H]3C(=O)N[C@@H](C)C(=O)N3C[C@H](C)C[C@H]3C(=O)O[C@H]2C)c1 [Compound 3, (S)-2-(3-(4-CHLORO-2-FLUOROPHENYL)UREIDO)-3-(M-TOLYL)-N-((2R,6S,8AS,14AS,20S,21S,23AS)-2,6,21-TRIMETHYL-5,8,14,19,23-PENTAOXOOCTADECAHYDRO-1H,5H,14H,19H-PYRIDO[2,1-I]DIPYRROLO[2,1-C:2′,1′-L][1]OXA[4,7,10,13]TETRAAZACYCLOHEXADECIN-20-YL)PROPANAMIDE] ({NH(4-Cl-2-F-phenyl)-CO}-[Phe(3-Me)][aThr]P[Pip]A[Pro(4R-Me)]; ester 2-C)	390 ± 20	6610 ± 280		0.156 (≈ 0.129 µg/mL)
Cc1cccc(C[C@H](NC(=O)Nc2ccc(Cl)cc2F)C(=O)N[C@@H]2C(=O)N3C[C@H](O)C[C@H]3C(=O)N3CCCC[C@H]3C(=O)N[C@@H](C)C(=O)N3C[C@H](C)C[C@H]3C(=O)O[C@H]2C)c1 [Compound 6, (S)-2-(3-(4-CHLORO-2-FLUOROPHENYL)UREIDO)-N-((2R,6S,8AS,14AS,16R,20S,21S,23AS)-16-HYDROXY-2,6,21-TRIMETHYL-5,8,14,19,23-PENTAOXOOCTADECAHYDRO-1H,5H,14H,19H-PYRIDO[2,1-I]DIPYRROLO[2,1-C:2′,1′-L][1]OXA[4,7,10,13]TETRAAZACYCLOHEXADECIN-20-YL)-3-(M-TOLYL)PROPANAMIDE] ({NH(4-Cl-2-F-phenyl)-CO}-[Phe(3-Me)][aThr][Hyp][Pip]A[Pro(4R-Me)]; ester 2-C)	230 ± 20	3000 ± 200		0.078 (≈ 0.0655 µg/mL)
Cc1cc(C)cc(C[C@H](NC(=O)Nc2ccc(Cl)cc2F)C(=O)N[C@@H]2C(=O)N3CCC[C@H]3C(=O)N3CCCC[C@H]3C(=O)N[C@@H](C)C(=O)N3C[C@H](C)C[C@H]3C(=O)O[C@H]2C)c1 [Compound 4, (S)-2-(3-(4-CHLORO-2-FLUOROPHENYL)UREIDO)-3-(3,5-DIMETHYLPHENYL)-N-((2R,6S,8AS,14AS,20S,21S,23AS)-2,6,21-TRIMETHYL-5,8,14,19,23-PENTAOXOOCTADECAHYDRO-1H,5H,14H,19H-PYRIDO[2,1-I]DIPYRROLO[2,1-C:2′,1′-L][1]OXA[4,7,10,13]TETRAAZACYCLOHEXADECIN-20-YL)PROPANAMIDE] ({NH(4-Cl-2-F-phenyl)-CO}-[Phe(3,5-Me2)][aThr]P[Pip]A[Pro(4R-Me)]; ester 2-C)	430 ± 20	6450 ± 400		0.625 (≈ 0.524 µg/mL)
Cc1cccc(C[C@H](NC(=O)Nc2ccc(Cl)c(F)c2)C(=O)N[C@H]2COC(=O)[C@@H]3C[C@@H](C)CN3C(=O)[C@H](C)NC(=O)[C@@H]3CN(C)CCN3C(=O)[C@@H]3CCCN3C2=O)c1 [Compound 14, (S)-2-(3-(4-CHLORO-3-FLUOROPHENYL)UREIDO)-3-(M-TOLYL)-N-((6AS,12S,15AS,17R,21S,23AS)-2,17,21-TRIMETHYL-6,11,15,20,23-PENTAOXOOCTADECAHYDRO-2H,6H,11H,15H-PYRAZINO[2,1-I]DIPYRROLO[2,1-C:2′,1′-L][1]OXA[4,7,10,13]TETRAAZACYCLOHEXADECIN-12-YL)PROPANAMIDE] ({X2-CO}-[Phe(3-Me)]SP[Piperazine(2S-CO,4-Me)]A[Pro(4R-Me)]; ester 2-C)	1410 ± 200	5190 ± 200		5 (≈ 4.13 µg/mL)
COc1cccc(C[C@H](NC(=O)Nc2ccc(Cl)cc2F)C(=O)N[C@H]2COC(=O)[C@@H]3C[C@@H](C)CN3C(=O)[C@H](C)NC(=O)[C@@H]3CN(C)CCN3C(=O)[C@@H]3CCCN3C2=O)c1 [Compound 19, (S)-2-(3-(4-CHLORO-2-FLUOROPHENYL)UREIDO)-3-(3-METHOXYPHENYL)-N-((6AS,12S,15AS,17R,21S,23AS)-2,17,21-TRIMETHYL-6,11,15,20,23-PENTAOXOOCTADECAHYDRO-2H,6H,11H,15H-PYRAZINO[2,1-I]DIPYRROLO[2,1-C:2′,1′-L][1]OXA[4,7,10,13]TETRAAZACYCLOHEXADECIN-12-YL)PROPANAMIDE] ({NH(4-Cl-2-F-phenyl)-CO}-[Phe(3-OMe)]SP[Piperazine(2S-CO,4-Me)]A[Pro(4R-Me)]; ester 2-C)	2520 ± 200	6050 ± 300		10 (≈ 8.41 µg/mL)
Cc1cccc(C[C@H](NC(=O)Nc2ccc(Cl)cc2F)C(=O)N[C@H]2COC(=O)[C@@H]3C[C@@H](C)CN3C(=O)[C@H](C)NC(=O)[C@@H]3CCCCN3C(=O)[C@@H]3C[C@@H](O)CN3C2=O)c1 [Compound 10]	380 ± 30	4650 ± 200		0.313 (≈ 0.259 µg/mL)
Cc1ccc(NC(=O)N[C@@H](Cc2cccc(C)c2)C(=O)N[C@@H]2C(=O)N3CCC[C@H]3C(=O)N3CCCC[C@H]3C(=O)N[C@@H](C)C(=O)N3C[C@H](C)C[C@H]3C(=O)O[C@H]2C)cc1 [Compound 1, (S)-3-(M-TOLYL)-2-(3-(P-TOLYL)UREIDO)-N-((2R,6S,8AS,14AS,20S,21S,23AS)-2,6,21-TRIMETHYL-5,8,14,19,23-PENTAOXOOCTADECAHYDRO-1H,5H,14H,19H-PYRIDO[2,1-I]DIPYRROLO[2,1-C:2′,1′-L][1]OXA[4,7,10,13]TETRAAZACYCLOHEXADECIN-20-YL)PROPANAMIDE] ({NH(4-Me-phenyl)-CO}-[Phe(3-Me)][aThr]P[Pip]A[Pro(4R-Me)]; ester 2-C)	430 ± 20	7480 ± 500	0.313 (≈ 0.246 µg/mL)	
Cc1ccc(NC(=O)N[C@@H](Cc2cccc(C)c2)C(=O)N[C@H]2COC(=O)[C@@H]3C[C@@H](C)CN3C(=O)[C@H](C)NC(=O)[C@@H]3CN(C)CCN3C(=O)[C@@H]3CCCN3C2=O)cc1 [Compound 15, (S)-3-(M-TOLYL)-2-(3-(P-TOLYL)UREIDO)-N-((6AS,12S,15AS,17R,21S,23AS)-2,17,21-TRIMETHYL-6,11,15,20,23-PENTAOXOOCTADECAHYDRO-2H,6H,11H,15H-PYRAZINO[2,1-I]DIPYRROLO[2,1-C:2′,1′-L][1]OXA[4,7,10,13]TETRAAZACYCLOHEXADECIN-12-YL)PROPANAMIDE] ({NH(4-Me-phenyl)-CO}-[Phe(3-Me)]SP[Piperazine(2S-CO,4-Me)]A[Pro(4R-Me)]; ester 2-C)	1580 ± 200	8120 ± 200	2.5 (≈ 1.97 µg/mL)	

From patent US10570179B2, “Substituted urea depsipeptide analogs as activators of the CLPP endopeptidase” (priority 2016, dated 2020)
